The source of these data is patent publication US8501757B2, “Substituted phenylamine carboxamide analogs as mGluR5 negative allosteric modulators and methods of making and using the same” (priority 2009, dated 2013).

Each structure is given as a SMILES string.

human mGluR5, sequence (P41594 21-1212): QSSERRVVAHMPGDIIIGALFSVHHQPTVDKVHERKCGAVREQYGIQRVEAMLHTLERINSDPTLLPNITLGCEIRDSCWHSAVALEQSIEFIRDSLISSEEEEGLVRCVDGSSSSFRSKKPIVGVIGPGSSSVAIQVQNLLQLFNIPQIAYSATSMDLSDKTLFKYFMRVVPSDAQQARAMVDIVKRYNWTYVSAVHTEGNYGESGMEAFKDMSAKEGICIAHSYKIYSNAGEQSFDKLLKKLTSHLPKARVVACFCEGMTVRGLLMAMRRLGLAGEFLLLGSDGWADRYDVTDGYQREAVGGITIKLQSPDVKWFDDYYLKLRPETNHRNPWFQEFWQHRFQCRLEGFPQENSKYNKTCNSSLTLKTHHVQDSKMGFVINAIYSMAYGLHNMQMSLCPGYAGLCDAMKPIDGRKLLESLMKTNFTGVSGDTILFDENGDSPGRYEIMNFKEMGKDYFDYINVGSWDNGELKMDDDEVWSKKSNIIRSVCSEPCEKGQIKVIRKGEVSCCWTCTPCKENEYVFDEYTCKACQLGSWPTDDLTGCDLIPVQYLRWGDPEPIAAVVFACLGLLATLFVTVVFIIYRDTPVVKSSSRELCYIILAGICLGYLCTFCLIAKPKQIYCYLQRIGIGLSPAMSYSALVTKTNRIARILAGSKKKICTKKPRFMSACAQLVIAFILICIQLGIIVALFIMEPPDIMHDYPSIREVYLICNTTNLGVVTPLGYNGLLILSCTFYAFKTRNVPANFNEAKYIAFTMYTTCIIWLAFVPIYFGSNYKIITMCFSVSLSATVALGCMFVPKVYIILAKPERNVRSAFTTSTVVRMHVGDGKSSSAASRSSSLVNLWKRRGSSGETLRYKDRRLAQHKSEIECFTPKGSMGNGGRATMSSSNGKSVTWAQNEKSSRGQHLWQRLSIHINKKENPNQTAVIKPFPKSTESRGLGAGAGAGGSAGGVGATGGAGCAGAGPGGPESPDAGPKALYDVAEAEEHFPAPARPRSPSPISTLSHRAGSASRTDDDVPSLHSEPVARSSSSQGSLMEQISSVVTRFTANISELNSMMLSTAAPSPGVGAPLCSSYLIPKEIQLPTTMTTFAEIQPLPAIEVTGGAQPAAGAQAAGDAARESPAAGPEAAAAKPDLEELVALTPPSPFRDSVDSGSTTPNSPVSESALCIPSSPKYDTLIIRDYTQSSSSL

For the first assay, the target named is T1, rat mGluR5 (Rattus norvegicus, UniProt P31424). The assay is described as follows: cell-based.
T1 sequence (P31424 21-1203): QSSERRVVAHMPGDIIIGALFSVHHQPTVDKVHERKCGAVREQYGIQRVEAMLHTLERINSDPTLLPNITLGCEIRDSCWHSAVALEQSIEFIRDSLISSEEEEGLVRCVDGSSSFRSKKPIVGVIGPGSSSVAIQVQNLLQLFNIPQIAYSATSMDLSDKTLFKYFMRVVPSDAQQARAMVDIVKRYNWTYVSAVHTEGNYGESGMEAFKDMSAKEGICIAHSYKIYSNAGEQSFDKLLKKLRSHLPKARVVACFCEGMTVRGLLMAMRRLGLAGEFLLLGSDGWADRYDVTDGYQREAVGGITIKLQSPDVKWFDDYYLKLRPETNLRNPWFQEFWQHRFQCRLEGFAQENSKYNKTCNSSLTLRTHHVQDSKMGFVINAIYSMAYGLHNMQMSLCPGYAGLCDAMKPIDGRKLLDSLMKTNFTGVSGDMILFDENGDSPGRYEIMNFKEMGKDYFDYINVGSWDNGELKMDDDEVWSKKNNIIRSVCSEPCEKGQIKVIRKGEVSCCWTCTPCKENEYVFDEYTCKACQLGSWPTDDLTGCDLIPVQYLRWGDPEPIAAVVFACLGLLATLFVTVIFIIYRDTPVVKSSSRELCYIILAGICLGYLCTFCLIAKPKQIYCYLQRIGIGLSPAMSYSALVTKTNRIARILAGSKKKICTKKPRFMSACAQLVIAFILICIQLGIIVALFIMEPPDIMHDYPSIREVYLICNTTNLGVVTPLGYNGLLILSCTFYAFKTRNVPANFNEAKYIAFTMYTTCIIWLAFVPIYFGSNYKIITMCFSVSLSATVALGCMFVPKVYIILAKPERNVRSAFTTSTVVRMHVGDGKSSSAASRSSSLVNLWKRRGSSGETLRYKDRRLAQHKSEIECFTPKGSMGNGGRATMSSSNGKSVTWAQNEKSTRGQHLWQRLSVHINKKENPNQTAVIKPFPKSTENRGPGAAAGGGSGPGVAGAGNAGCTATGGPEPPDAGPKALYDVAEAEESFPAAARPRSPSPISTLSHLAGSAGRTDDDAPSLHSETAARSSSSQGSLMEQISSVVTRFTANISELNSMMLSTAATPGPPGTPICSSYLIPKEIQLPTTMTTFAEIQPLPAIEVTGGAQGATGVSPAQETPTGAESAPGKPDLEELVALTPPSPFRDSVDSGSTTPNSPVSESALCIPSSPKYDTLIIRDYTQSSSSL
Settings: not given
For orientation: IC50 means the concentration needed to halve the response being measured. In turn, `N#Cc1ccc(F)c(C(=O)Nc2cc(F)cc(Oc3cncnc3)c2)c1` showed an IC50 of 87 nM. Take `O=C(Nc1cc(Oc2cccnc2)cc(C(F)(F)F)c1)c1cccc(Cl)c1`: the IC50 was above 30000 nM. In the case of `CC(C)Oc1ccnc(C(=O)Nc2cc(F)cc(Oc3cncnc3)c2)c1`, the concentration for half-maximal inhibition (IC50) stood at 230 nM. `O=C(Nc1cccc(Oc2cccnc2)c1)c1ccc(F)c(Cl)c1`: it took 6250 nM to reach half-maximal inhibition (IC50). `O=C(Nc1cccc(Oc2cncnc2)c1)c1cccc(Br)c1` came in with an IC50 of 53 nM.

With `O=C(Nc1cc(Cl)cc(Oc2cncc(F)c2)c1)c1cccc(Cl)n1`, the midpoint of inhibition, the IC50, lay at 5370 nM.

As for `O=C(Nc1cccc(Oc2cccnc2)c1)c1nccs1`, the IC50 was 1600 nM. Same read-out and setting: the result for `CN(c1cccnc1)c1cccc(NC(=O)c2cccc(Br)c2)c1` reads 83 nM; that for `O=C(Nc1cccc(Oc2cccnc2)c1)c1cscn1`, 1270 nM; that for `O=C(Nc1cccc(Oc2cccnc2)c1)c1cccc(F)n1`, 3530 nM. The compound `CN(c1cncnc1)c1cc(NC(=O)c2cccc(C#N)c2)ccc1F` yielded an IC50 of 51 nM. Same read-out and setting: the result for `CN(c1cncc(Cl)c1)c1cccc(NC(=O)c2cccc(Cl)c2)c1` reads above 10000 nM. `COc1cccc(C(=O)Nc2cccc(Oc3cccnc3)c2)n1`: the half-maximal inhibitory concentration (IC50) amounted to 8340 nM. The compound `CN(c1cncnc1)c1cc(NC(=O)c2cccc(Br)c2)ccc1Cl` showed an IC50 of 36 nM. The compound `O=C(Nc1cccc(Oc2cccnc2)c1)c1cccc(C(F)(F)F)c1` returned a half-maximal inhibitory concentration (IC50) of 5990 nM. In turn, `Cc1cccc(C(=O)Nc2cccc(Oc3cccnc3)c2)c1` gave an IC50 of 286 nM. As for `COc1cccc(C(=O)Nc2cc(F)cc(Oc3cncnc3)c2)c1`, the IC50 is 311 nM. `CCN(c1cncnc1)c1cccc(NC(=O)c2cccc(C#N)c2)c1` yielded an IC50 of 43 nM. The compound `CN(c1cncnc1)c1cc(Cl)cc(NC(=O)c2cccc(Cl)c2)c1` displayed a half-inhibitory concentration (IC50) of 138 nM. Turning to `N#Cc1cccc(C(=O)Nc2cc(F)cc(Oc3cncnc3)c2)c1` [drawing 550], the midpoint of inhibition, the IC50, lay at 61 ± 15 nM. Take `COc1ccnc(C(=O)Nc2cc(C#N)cc(Oc3cncnc3)c2)c1`: inhibition was half-maximal at 63 nM (IC50). As to `CN(c1cccnc1)c1cccc(NC(=O)c2cccc(Cl)c2)c1`, inhibition was half-maximal at 31 ± 5 nM (IC50). Same read-out and setting: to `O=C(Nc1cc(F)cc(Oc2cncnc2)c1)c1cccc(F)n1` belongs 2560 nM.

In turn, `CCN(c1cccnc1)c1cccc(NC(=O)c2cccc(Br)c2)c1` gave an IC50 of 208 nM. The compound `CN(c1cncnc1)c1cc(NC(=O)c2cccc(C#N)c2)ccc1Cl` yielded an IC50 of 59 nM. Compound `CCN(c1cccnc1)c1cc(F)cc(NC(=O)c2cccc(Br)c2)c1` registered an IC50 of 656 nM. In turn, `O=C(Nc1cc(F)c(F)c(Oc2cncnc2)c1)c1ccc(F)cn1` gave an IC50 of 5420 nM.

`CN(c1cncnc1)c1cc(NC(=O)c2cccc(F)c2)cc(F)c1F`: the IC50 is 28 nM.

In the case of `O=C(Nc1cc(F)c(F)c(Oc2cncnc2)c1)c1cc(F)ccn1`, the IC50 is 1690 nM. `N#Cc1cccc(C(=O)Nc2cccc(Oc3cccnc3)c2)c1`: the IC50 was 536 nM. Still for that read-out and setting: the result for `O=C(Nc1cccc(Oc2cncnc2)c1)c1cccc(Cl)c1` reads 75 ± 13 nM.

As to `O=C(Nc1cccc(Oc2cncc(F)c2)c1)c1cccc(Br)c1`, 124 nM corresponded to half-maximal inhibition (IC50). Take `CCCN(c1cccnc1)c1cccc(NC(=O)c2cccc(Cl)c2)c1`: the IC50 is 5490 nM.

For `CC(C)CN(c1cncnc1)c1cc(NC(=O)c2cccc(Cl)c2)ccc1Cl`, the IC50 was above 10000 nM.

As for `CN(c1cncnc1)c1cc(NC(=O)c2cccc(F)n2)ccc1F`, the IC50 came out at 8.6 nM. Regarding `CCN(c1cccnc1)c1cccc(NC(=O)c2cccc(Cl)c2)c1`, the IC50 was found to be 111 ± 21 nM. `CN(c1cncnc1)c1cccc(NC(=O)c2cccc(C#N)c2)c1` displayed an IC50 of 84 ± 14 nM.

On to `N#Cc1cc(NC(=O)c2cc(Cl)ccn2)cc(Oc2cncnc2)c1`, for which half-maximal inhibition (IC50) was put at 16 nM. The compound `CN(c1cncnc1)c1cc(F)cc(NC(=O)c2cccc(F)c2)c1` displayed a 50% inhibitory concentration (IC50) of 127 nM.

`CN(c1cncc(Cl)c1)c1cccc(NC(=O)c2cccc(C#N)c2)c1` yielded an IC50 above 10000 nM. `N#Cc1cccc(C(=O)Nc2cccc(Oc3cncnc3)c2)c1` gave an IC50 of 580 nM. The compound `CN(c1cncnc1)c1cc(NC(=O)c2cccc(F)c2)ccc1F` yielded an IC50 of 9.8 nM. With `N#Cc1cc(C(=O)Nc2cc(F)cc(Oc3cncnc3)c2)ccc1F`, the IC50 was 1640 nM. Compound `N#Cc1cccc(C(=O)Nc2cc(Cl)cc(Oc3cncnc3)c2)c1` returned an IC50 of 63 ± 9 nM. The compound `CN(c1cncnc1)c1cc(NC(=O)c2cccc(Br)c2)ccc1F` had an IC50 of 14 nM. The same measure, in the same setting: the result for `CN(c1cncnc1)c1cccc(NC(=O)c2cccc(C(F)(F)F)n2)c1` reads 34 ± 7 nM; that for `CN(c1cncnc1)c1cccc(NC(=O)c2cccc(F)c2)c1`, 21 ± 4 nM.

The compound `CN(c1cncnc1)c1cc(NC(=O)c2cccc(C#N)c2)cc(F)c1F` had an IC50 of 148 nM.

In the case of `N#Cc1cccc(C(=O)Nc2cccc(Oc3cncc(Cl)c3)c2)c1`, 155 nM corresponded to half-maximal inhibition (IC50). For `CN(c1cncnc1)c1ccc(F)c(NC(=O)c2cccc(Cl)c2)c1`, the IC50 stood at 80 nM.

Regarding `Cc1ncccc1Oc1cccc(NC(=O)c2cccc(Cl)c2)c1`, inhibition was half-maximal at 2230 nM (IC50). `CCN(c1cccnc1)c1cccc(NC(=O)c2cccc(C#N)c2)c1` registered an IC50 of 120 nM. In the case of `O=C(Nc1cccc(Oc2cccnc2)c1)c1cccc(Cl)c1F`, the IC50 was above 10000 nM. As to `N#Cc1cc(NC(=O)c2cc(Br)ccn2)cc(Oc2cncnc2)c1`, the IC50 was 17 nM. Take `CN(c1cncnc1)c1cc(NC(=O)c2cccc(O)n2)ccc1F`: half-maximal inhibition (IC50) was put at 2910 nM. On to `CN(c1cncnc1)c1cc(NC(=O)c2cccc(F)c2)ccc1Cl`, for which the IC50 is 16 nM.

`Cc1ccc(Oc2cc(Cl)cc(NC(=O)c3cccc(Cl)c3)c2)cn1` returned an IC50 above 10000 nM.

Turning to `Cc1cccc(C(=O)Nc2cc(Cl)cc(Oc3ccc(C)nc3)c2)c1`, the IC50 came out at 6870 nM. Still for that read-out and setting: to `Cc1csc(C(=O)Nc2cccc(Oc3cccnc3)c2)n1` belongs 465 nM; to `CCN(c1cccnc1)c1cc(F)cc(NC(=O)c2cccc(Cl)c2)c1`, 388 nM; to `CN(c1cncnc1)c1cc(NC(=O)c2cscn2)cc(F)c1F`, 80 nM. In the case of `COc1cccc(C(=O)Nc2cccc(N(C)c3cncnc3)c2)c1`, the IC50 worked out at 108 ± 32 nM.

`N#Cc1cc(NC(=O)c2cccc(C#N)c2)cc(Oc2cncnc2)c1`: the IC50 amounted to 443 nM. As to `Cc1nc(C(=O)Nc2cccc(Oc3cccnc3)c2)cs1`, the IC50 was 4210 nM. As for `O=C(Nc1cc(F)cc(Oc2cncnc2)c1)c1cccc(F)c1`, the IC50 was 288 nM.

On to `[2H]C([2H])([2H])N(c1cncnc1)c1cc(NC(=O)c2cccc(C#N)c2)ccc1Cl`, for which the IC50 was 84 nM. Still for that read-out and setting: to `O=C(Nc1cc(F)cc(Oc2cncnc2)c1)c1cccc(OC(F)(F)F)c1` belongs 417 nM.

The target in the next assay is T1, rat mGluR5.
Assay: not given
The conditions noted are these: read-out: mGluR5, IC50 rat; HEK cells expressing rat mGluR5.
Regarding `N#Cc1cccc(C(=O)Nc2cc(F)cc(Oc3cncnc3)c2)c1` [drawing 665], the 50% inhibitory concentration (IC50) stood at 61 ± 15 nM.

The next assay addresses human mGluR5 (Homo sapiens, UniProt P41594). Kind of assay: cell-based.
Settings: not given
Regarding `N#Cc1cccc(C(=O)Nc2cccc(Oc3cncc(F)c3)c2)c1`, it took 249 nM to reach half-maximal inhibition (IC50). `O=C(Nc1cc(Cl)cc(Oc2cncnc2)c1)c1cccc(Cl)c1` gave an IC50 of 30 nM.

With `N#Cc1cc(NC(=O)c2cccc(Br)c2)cc(Oc2cncnc2)c1`, the IC50 was determined as 94 nM. The same measure, in the same setting: to `CN(c1cncnc1)c1cc(NC(=O)c2cccc(Cl)c2)ccc1F` belongs 11 nM; to `N#Cc1cccc(C(=O)Nc2cc(F)cc(Oc3cncnc3)c2)c1` [drawing 665], 60 nM.
